The assay has as its system lipoxygenase. Kind of assay: lipoxygenase inhibition: release of leukotriene B4 (LTB4) from polymorphonuclear rat leukocytes (PMN), reverse phase HPLC, after adding substances and Ca ionophore. The conditions noted are these: read-out: LO inhibition IC50. Format: cell-based. As to the method: As a measure of the lipoxygenase inhibition, the release of leukotriene B4 (LTB4) from polymorphonuclear rat leukocytes (PMN) was determined by means of reverse phase HPLC according to Borgeat, P. et al., Proc. Nat. Acad. Sci. 76, 2148-2152 (1979) after adding substances and Ca ionophore. The in vivo activity of the compounds was determined using the mouse ear inflammation model according to Young, J. M. et al., J. of Investigative Dermatology 82, 367-371, (1984).
By IC50 is commonly meant the concentration that inhibits the measured activity by half. Regarding `Cc1cc([N+](=O)[O-])ccc1NC(=S)Nc1ccc(OCc2ccc3ccccc3n2)cc1` [Example 3, N-(2-Methyl-4-nitrophenyl)-N'-4-(quinolin-2-yl-methoxy)phenyl-thiourea], the IC50 came out at 36 nM.

`Cc1cc(Cl)c(Cl)cc1NC(=S)Nc1ccc(OCc2ccc3ccccc3n2)cc1` [Example 5]: the IC50 worked out at 410 nM.

With `Cc1cc(Cl)ccc1NC(=S)Nc1ccc(OCc2ccc3ccccc3n2)cc1` [Example 8, N-(2-Methyl-4-chlorophenyl)-N'-4-(quinolin-2-yl-methoxy)phenyl-thiourea], the IC50 was 290 nM.

Consider `O=C(NC(=S)Nc1ccc(OCc2ccc3ccccc3n2)cc1)c1ccc(Cl)cc1` [Example 6, N-(4-Chlorobenzoyl)-N'-4-(quinolin-2-yl-methoxy)-phenyl-thiourea], for which the IC50 was 360 nM.

Turning to `N#CC1(NC(=S)Nc2ccc(OCc3ccc4ccccc4n3)cc2)CCCCC1` [Example 7, N-(1-Cyano-cyclohexyl)-N'-4-(quinolin-2-yl-methoxy)phenyl-thiourea], the IC50 came out at 240 nM.

In the case of `Cc1cc([N+](=O)[O-])c(Cl)cc1NC(=S)Nc1ccc(OCc2ccc3ccccc3n2)cc1` [Example 4, N-(2-Methyl-4-nitro-5-chlorophenyl)-N'-4-(quinolin-2-yl-methyloxy)phenyl-thiourea], the IC50 is 33 nM.

These data come from US5120744A, “Substituted (quinolin-2-yl-methoxy)phenylthioureas” (Bayer Aktiengesellschaft, priority 1989, dated 1992).
